IC50 data for 49 compounds are collected here from ChEMBL document CHEMBL1144978, “A new series of potent benzodiazepine gamma-secretase inhibitors” (Bioorg Med Chem Lett, 2003).

Each structure is given as a SMILES string. pIC50: −log10 of the molar value.

The nature of the assay: Inhibitory activity against human gamma-secretase using SH-SY5Y cells. The class given is cell-based.
`CN1C(=O)C(NC(=O)CCc2ccc(F)cc2)N=C(c2ccc(C(N)=O)cc2)c2ccccc21` (centres undefined) had a negative logarithm of the IC50 (pIC50) of 6.96.
On to `CN1C(=O)C(NC(=O)CCc2ccc(F)c(F)c2)N=C(c2ccc(C(N)=O)cc2)c2ccccc21` (centres undefined), for which the negative logarithm of the IC50 (pIC50) is 7.54.
For `CN1C(=O)C(NC(=O)CCc2cc(F)cc(F)c2)N=C(c2ccc(C(N)=O)cc2)c2ccccc21` (centres undefined) the value was 6.96; for `CN1C(=O)C(NC(=O)CCc2cccc(Cl)c2Cl)N=C(c2ccc(C(N)=O)cc2)c2ccccc21` (centres undefined), 7.66; for `Cc1ccc(CCC(=O)NC2N=C(c3ccc(C(N)=O)cc3)c3ccccc3N(C)C2=O)cc1` (centres undefined), 6.74.
For `CN1C(=O)[C@@H](NC(=O)C(Cc2ccc(Cl)c(Cl)c2)c2ccsc2)N=C(c2ccccc2)c2ccccc21` (some centres undefined), the pIC50 is 7.00.
Next, `CN1C(=O)C(NC(=O)CCc2cc(Cl)cc(Cl)c2)N=C(c2ccc(C(N)=O)cc2)c2ccccc21` (centres undefined): 7.40; `CN1C(=O)C(NC(=O)CCc2c(Cl)cccc2Cl)N=C(c2ccc(C(N)=O)cc2)c2ccccc21` (centres undefined): 5.49.
For `CN1C(=O)C(NC(=O)CCc2ccc(N)cc2)N=C(c2ccc(C(N)=O)cc2)c2ccccc21` (centres undefined) the value was less than 5.00; for `COc1ccccc1CCC(=O)NC1N=C(c2ccc(C(N)=O)cc2)c2ccccc2N(C)C1=O` (centres undefined), 5.29; for `CN1C(=O)[C@@H](NC(=O)[C@@H](Cc2ccc(Cl)c(Cl)c2)NC(=O)OC(C)(C)C)N=C(c2ccccc2)c2ccccc21`, 6.12.
Turning to `CN1C(=O)C(NC(=O)CCc2cccc(O)c2)N=C(c2ccc(C(N)=O)cc2)c2ccccc21` (centres undefined), the negative logarithm of the IC50 (pIC50) was 5.17.
Compound `CN1C(=O)[C@@H](NC(=O)[C@@H](Cc2ccc(Cl)c(Cl)c2)N2CCCC2)N=C(c2ccccc2)c2ccccc21` showed a pIC50 of 6.39.
Next, `C[C@@H](Cc1ccc(Cl)cc1Cl)C(=O)N[C@H]1N=C(c2ccccc2)c2ccccc2N(C)C1=O`: 6.09.
Compound `COc1ccc(CCC(=O)NC2N=C(c3ccc(C(N)=O)cc3)c3ccccc3N(C)C2=O)cc1` (centres undefined) showed a pIC50 of 5.87.
`CN1C(=O)[C@@H](NC(=O)[C@H](Cc2ccc(Cl)c(Cl)c2)c2ccc(F)cc2)N=C(c2ccccc2)c2ccccc21`: the negative-log IC50 (pIC50) was 7.82.
As for `COc1cccc(CCC(=O)NC2N=C(c3ccc(C(N)=O)cc3)c3ccccc3N(C)C2=O)c1` (centres undefined), the pIC50 is 5.80.
As for `CC(Cc1ccc(Cl)cc1Cl)C(=O)NC1N=C(c2ccc(C(N)=O)cc2)c2ccccc2N(C)C1=O` (centres undefined), the pIC50 is 8.10.
Compound `CN1C(=O)[C@@H](NC(=O)[C@H](Cc2ccc(F)c(F)c2)c2ccc(F)cc2)N=C(c2ccccc2)c2ccccc21` had a negative-log IC50 (pIC50) of 8.42.
The compound `CN1C(=O)C(NC(=O)CCc2ccc(Cl)cc2)N=C(c2ccc(C(N)=O)cc2)c2ccccc21` (centres undefined) showed a negative-log IC50 (pIC50) of 7.82.
`CN1C(=O)C(NC(=O)CCc2cccc(Cl)c2)N=C(c2ccc(C(N)=O)cc2)c2ccccc21` (centres undefined) gave a pIC50 of 7.03.
Next, `CN1C(=O)C(NC(=O)CCCc2ccccc2)N=C(c2ccc(C(N)=O)cc2)c2ccccc21` (centres undefined): 5.30; `CN1C(=O)C(NC(=O)CCc2ccc(Cl)cc2Cl)N=C(c2ccc(C(N)=O)cc2)c2ccccc21` (centres undefined): 7.48.
Next, `CN1C(=O)C(NC(=O)CCc2ccc(Cl)c(Cl)c2)N=C(c2ccc(C(N)=O)cc2)c2ccccc21` (centres undefined): 7.92.
Regarding `CN1C(=O)[C@@H](NC(=O)[C@@H](Cc2ccc(Cl)c(Cl)c2)c2ccccc2)N=C(c2ccccc2)c2ccccc21`, the pIC50 was 7.14.
Take `CN1C(=O)C(NC(=O)CCc2ccc(O)cc2)N=C(c2ccc(C(N)=O)cc2)c2ccccc21` (centres undefined): the pIC50 was less than 5.00.
For `C[C@@H](Cc1ccc(Cl)c(Cl)c1)C(=O)N[C@H]1N=C(c2ccccc2)c2ccccc2N(C)C1=O`, the pIC50 was 6.49.
Next, `CN1C(=O)C(NC(=O)C(C)(C)Cc2ccc(Cl)cc2Cl)N=C(c2ccc(C(N)=O)cc2)c2ccccc21` (centres undefined): 6.40; `CN1C(=O)C(NC(=O)Cc2ccc(Cl)cc2Cl)N=C(c2ccc(C(N)=O)cc2)c2ccccc21` (centres undefined): less than 5.00.
The compound `CN1C(=O)C(NC(=O)CCc2ccccc2)N=C(c2ccc(C(N)=O)cc2)c2ccccc21` (centres undefined) showed a pIC50 of 6.47.
Take `C[C@@H](Cc1ccc(F)c(F)c1)C(=O)N[C@H]1N=C(c2ccccc2)c2ccccc2N(C)C1=O`: the pIC50 was 6.66.
The compound `CN1C(=O)[C@@H](NC(=O)C(Cc2ccc(Cl)c(Cl)c2)c2cccs2)N=C(c2ccccc2)c2ccccc21` (some centres undefined) gave a pIC50 of 7.43.
The compound `CN1C(=O)C(NC(=O)/C=C/c2ccc(Cl)cc2Cl)N=C(c2ccc(C(N)=O)cc2)c2ccccc21` (centres undefined) gave a negative logarithm of the IC50 (pIC50) of 5.33.
For the compound `Cc1nc(C(Cc2ccc(Cl)c(Cl)c2)C(=O)N[C@H]2N=C(c3ccccc3)c3ccccc3N(C)C2=O)cs1` (some centres undefined), the pIC50 is 6.19.
As to `CN1C(=O)[C@@H](NC(=O)[C@H](Cc2ccc(Cl)c(Cl)c2)c2ccc(Br)cc2)N=C(c2ccccc2)c2ccccc21`, the pIC50 was 7.00.
Next, `CN1C(=O)C(NC(=O)CCc2ccccc2Cl)N=C(c2ccc(C(N)=O)cc2)c2ccccc21` (centres undefined): 6.52; `CN1C(=O)C(NC(=O)CCc2cc(Cl)ccc2Cl)N=C(c2ccc(C(N)=O)cc2)c2ccccc21` (centres undefined): 7.22; `CN1C(=O)[C@@H](NC(=O)[C@H](Cc2ccc(Cl)c(Cl)c2)c2ccccc2)N=C(c2ccccc2)c2ccccc21`: 6.74.
Next, `C[C@@H](Cc1ccc(Cl)cc1Cl)C(=O)N[C@@H]1N=C(c2ccccc2)c2ccccc2N(C)C1=O`: less than 5.00; `CN1C(=O)C(NC(=O)CCc2cc(C(F)(F)F)cc(C(F)(F)F)c2)N=C(c2ccc(C(N)=O)cc2)c2ccccc21` (centres undefined): 6.40; `CN1C(=O)[C@@H](NC(=O)[C@H](Cc2ccc(Cl)c(Cl)c2)N2CCCC2)N=C(c2ccccc2)c2ccccc21`: 6.46.
`C[C@H](Cc1ccc(Cl)cc1Cl)C(=O)NC1N=C(c2ccc(C(N)=O)cc2)c2ccccc2N(C)C1=O` (single isomer, unassigned; diastereomer A) gave a pIC50 of 7.38.
Next, `C[C@@H](Cc1ccc(Cl)cc1Cl)C(=O)NC1N=C(c2ccc(C(N)=O)cc2)c2ccccc2N(C)C1=O` (single isomer, unassigned; diastereomer A): 6.30; `CN1C(=O)[C@@H](NC(=O)C(Cc2ccc(Cl)c(Cl)c2)c2ccncc2)N=C(c2ccccc2)c2ccccc21` (single isomer, unassigned; diastereomer A): 5.87.
Take `CC(C)C(Cc1ccc(Cl)c(Cl)c1)C(=O)N[C@H]1N=C(c2ccccc2)c2ccccc2N(C)C1=O` (single isomer, unassigned; diastereomer A): the pIC50 was 6.36.
Next, `C[C@H](Cc1ccc(Cl)cc1Cl)C(=O)NC1N=C(c2ccc(C(N)=O)cc2)c2ccccc2N(C)C1=O` (single isomer, unassigned; diastereomer B): 6.04; `C[C@@H](Cc1ccc(Cl)cc1Cl)C(=O)NC1N=C(c2ccc(C(N)=O)cc2)c2ccccc2N(C)C1=O` (single isomer, unassigned; diastereomer B): 8.72; `CN1C(=O)[C@@H](NC(=O)C(Cc2ccc(Cl)c(Cl)c2)c2ccncc2)N=C(c2ccccc2)c2ccccc21` (single isomer, unassigned; diastereomer B): 6.72.
For the compound `CC(C)C(Cc1ccc(Cl)c(Cl)c1)C(=O)N[C@H]1N=C(c2ccccc2)c2ccccc2N(C)C1=O` (single isomer, unassigned; diastereomer B), the negative-log IC50 (pIC50) is 6.62.
